# “And” between values parts separate entries of the source, which are not always exact repeats. Equal values may be shown once.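 How tested: cells in 96-well plates exposed to compound for 48 hours at five concentrations. GI50 marks 50% less growth. Definition used: TGI = concentration required for complete inhibition of growth.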
# Test system: SF-295 CNS
# Experiment: inhibition of tumour cell growth, NCI panel, 48 h
Structure (SMILES),GI50,TGI
CCN(CC)c1ccc2c(c1)OC(N)=C(C#N)C2c1cc(OC)c2c(c1)OCO2 (stereo not drawn),< 0.0157 µM,2.68 µM
N#CC(=C1C=CC(=NO)C=C1)c1ccccc1,2.91 µM,8.16 µM
CCCCCCCCCCCCCC1=NC(C)(C)CN1C(C)C,1.62 µM,3.15 µM
COc1ccc(CN2C(=O)/C(=C\C(=O)c3ccc(OCCN4CCCCC4)cc3)c3ccccc32)cc1,13.8 µM,31.8 µM
CCC(C)n1ncn(-c2ccc(N3CCN(c4ccc(OCC5COC(Cn6cncn6)(c6ccc(Cl)cc6Cl)O5)cc4)CC3)cc2)c1=O (stereo not drawn),1.4 µM,> 100 µM
CC(C)CCN1c2nc(Nc3cc(F)c(O)c(F)c3)ncc2N(C)C(=O)C1C (stereo not drawn),11.3 µM,> 100 µM
O=C(CNc1ccc(Cl)cc1)Nc1ccc(-c2nc3ccccc3s2)cc1,14.1 µM,28.8 µM
Cc1nc2c(-c3cnc(N)nc3)nc(N3CCOCC3)nc2n1C(C)C,–,0.888 µM and 0.406 µM
CCCCCCCCCCCCOC1C(C(COC2OC(C3COC(C)(C)O3)C3OC(C)(C)OC23)NC(=O)Nc2ccc(C(=O)O)cc2)OC2OC(C)(C)OC21 (stereo not drawn),2.15 µM,5.69 µM
CCN(CC)CCC(CNc1ccnc2cc(Cl)ccc12)c1ccc(OC)cc1 (stereo not drawn),2.87 µM and 1.95 µM,10.2 µM and 7.8 µM
COc1ccc(/C=C(/C(=O)N2CCN(c3ccccc3)CC2)c2cc(OC)c(OC)c(OC)c2)cc1O,0.808 µM,> 100 µM
CCn1c(-c2nonc2N)nc2c(C#CC(C)(C)O)nc(OC[C@H](N)c3ccccc3)cc21,2.95 µM,7.22 µM

# Test system: MALME-3M melanoma
# Experiment: inhibition of tumour cell growth, NCI panel, 48 h
Structure (SMILES),GI50,TGI
C=CCCCCC/C=C\[C@H](O)C#CC#C/C=C/CO,54 µM,> 100 µM
O/N=C/C1C(OCc2ccccc2)C(OCc2ccccc2)C(OCc2ccccc2)CN1Cc1ccccc1 (stereo not drawn),–,97.6 µM and 33.6 µM
O=C1NC(=O)C(c2cnc3ccccn23)=C1c1cn2c3c(cc(F)cc13)CN(C(=O)N1CCCCC1)CC2,30.7 µM,60.8 µM
Clc1nc2ccccc2nc1CI,2.2 µM,4.52 µM
Cn1nc(N)c2cc([C@@H]3Nc4ccc5[nH]ncc5c4[C@H]4C5CCC(C5)[C@@H]34)ccc21 (stereo partly drawn),0.442 µM,32.7 µM
O=C(O)C1C2C=CC(O2)C1C(=O)NCc1ccccn1 (stereo not drawn),–,> 100 µM
O=C(OC(CNc1cc(=O)n(Cc2ccccc2)c(=O)n1Cc1ccccc1)CN1CCCC1)c1ccccc1 (stereo not drawn),> 100 µM,> 100 µM
CCN(CC)CCCC(CNc1ccnc2cc(Cl)ccc12)c1ccc(Cl)cc1 (stereo not drawn),1.41 µM and 1.25 µM,3.02 µM and 2.72 µM
CCOC(=O)CCCn1c(SC)nc2[nH]cc(-c3ccccc3)c2c1=O,15.1 µM,42.1 µM
[Cl][Hg][c]1cc(Br)cc(Br)c1,1.69 µM,3.28 µM
CNC(=O)N(C)N=NCCCl,–,> 100 µM
CCN1CCN(C(c2ccc(C(F)(F)F)cc2)c2ccc3cccnc3c2O)CC1 (stereo not drawn),3.72 µM,15.4 µM
COc1ccc(C(C)=O)cc1N1C(=O)C2C(C1=O)C1(c3ccccc3)C(=O)C2(c2ccccc2)C(c2ccc(C)cc2)=C1c1ccc(C)cc1 (stereo not drawn),> 100 µM,> 100 µM
O=C1c2cccc(NCCCNCCO)c2C(=O)c2cccc(NCCCNCCO)c21,2.06 µM and 4.18 µM,3.94 µM and 10.4 µM
CCN(CC)c1ccc2c(c1)OC(N)=C(C#N)C2c1cc(OC)c2c(c1)OCO2 (stereo not drawn),0.445 µM,5.59 µM
N#CC(=C1C=CC(=NO)C=C1)c1ccccc1,4.92 µM,19.8 µM
CCCCCCCCCCCCCC1=NC(C)(C)CN1C(C)C,1.7 µM,3.41 µM
COc1ccc(CN2C(=O)/C(=C\C(=O)c3ccc(OCCN4CCCCC4)cc3)c3ccccc32)cc1,1.82 µM,3.41 µM
CCC(C)n1ncn(-c2ccc(N3CCN(c4ccc(OCC5COC(Cn6cncn6)(c6ccc(Cl)cc6Cl)O5)cc4)CC3)cc2)c1=O (stereo not drawn),46.2 µM,> 100 µM
CC(C)CCN1c2nc(Nc3cc(F)c(O)c(F)c3)ncc2N(C)C(=O)C1C (stereo not drawn),6.63 µM,64 µM
O=C(CNc1ccc(Cl)cc1)Nc1ccc(-c2nc3ccccc3s2)cc1,6.06 µM,12.6 µM
Cc1nc2c(-c3cnc(N)nc3)nc(N3CCOCC3)nc2n1C(C)C,–,0.46 µM and 0.225 µM
CCCCCCCCCCCCOC1C(C(COC2OC(C3COC(C)(C)O3)C3OC(C)(C)OC23)NC(=O)Nc2ccc(C(=O)O)cc2)OC2OC(C)(C)OC21 (stereo not drawn),2.88 µM,6.91 µM
CCN(CC)CCC(CNc1ccnc2cc(Cl)ccc12)c1ccc(OC)cc1 (stereo not drawn),1.95 µM and 1.86 µM,3.76 µM and 3.64 µM
COc1ccc(/C=C(/C(=O)N2CCN(c3ccccc3)CC2)c2cc(OC)c(OC)c(OC)c2)cc1O,24.7 µM,> 100 µM
CCn1c(-c2nonc2N)nc2c(C#CC(C)(C)O)nc(OC[C@H](N)c3ccccc3)cc21,4.69 µM,9.35 µM

# Test system: SNB-19 CNS
# Experiment: inhibition of tumour cell growth, NCI panel, 48 h
Structure (SMILES),GI50,TGI
C=CCCCCC/C=C\[C@H](O)C#CC#C/C=C/CO,> 100 µM,> 100 µM
O/N=C/C1C(OCc2ccccc2)C(OCc2ccccc2)C(OCc2ccccc2)CN1Cc1ccccc1 (stereo not drawn),–,> 100 µM
O=C1NC(=O)C(c2cnc3ccccn23)=C1c1cn2c3c(cc(F)cc13)CN(C(=O)N1CCCCC1)CC2,22.8 µM,> 87.5 µM
Clc1nc2ccccc2nc1CI,16.2 µM,37.4 µM
Cn1nc(N)c2cc([C@@H]3Nc4ccc5[nH]ncc5c4[C@H]4C5CCC(C5)[C@@H]34)ccc21 (stereo partly drawn),2.34 µM,34.8 µM
O=C(O)C1C2C=CC(O2)C1C(=O)NCc1ccccn1 (stereo not drawn),–,> 100 µM
O=C(OC(CNc1cc(=O)n(Cc2ccccc2)c(=O)n1Cc1ccccc1)CN1CCCC1)c1ccccc1 (stereo not drawn),> 100 µM,> 100 µM
CCN(CC)CCCC(CNc1ccnc2cc(Cl)ccc12)c1ccc(Cl)cc1 (stereo not drawn),1.9 µM and 2.73 µM,4.17 µM and 6.9 µM
CCOC(=O)CCCn1c(SC)nc2[nH]cc(-c3ccccc3)c2c1=O,21 µM,> 100 µM
[Cl][Hg][c]1cc(Br)cc(Br)c1,1.2 µM,2.51 µM
CNC(=O)N(C)N=NCCCl,–,> 100 µM
CCN1CCN(C(c2ccc(C(F)(F)F)cc2)c2ccc3cccnc3c2O)CC1 (stereo not drawn),1.51 µM,19.8 µM
COc1ccc(C(C)=O)cc1N1C(=O)C2C(C1=O)C1(c3ccccc3)C(=O)C2(c2ccccc2)C(c2ccc(C)cc2)=C1c1ccc(C)cc1 (stereo not drawn),> 100 µM,> 100 µM
O=C1c2cccc(NCCCNCCO)c2C(=O)c2cccc(NCCCNCCO)c21,–,5.58 µM
CCN(CC)c1ccc2c(c1)OC(N)=C(C#N)C2c1cc(OC)c2c(c1)OCO2 (stereo not drawn),0.0418 µM,51 µM
N#CC(=C1C=CC(=NO)C=C1)c1ccccc1,3.73 µM,9.35 µM
CCCCCCCCCCCCCC1=NC(C)(C)CN1C(C)C,1.79 µM,3.18 µM
COc1ccc(CN2C(=O)/C(=C\C(=O)c3ccc(OCCN4CCCCC4)cc3)c3ccccc32)cc1,4.63 µM,17.1 µM
CCC(C)n1ncn(-c2ccc(N3CCN(c4ccc(OCC5COC(Cn6cncn6)(c6ccc(Cl)cc6Cl)O5)cc4)CC3)cc2)c1=O (stereo not drawn),38.9 µM,> 100 µM
CC(C)CCN1c2nc(Nc3cc(F)c(O)c(F)c3)ncc2N(C)C(=O)C1C (stereo not drawn),6.35 µM,> 100 µM
O=C(CNc1ccc(Cl)cc1)Nc1ccc(-c2nc3ccccc3s2)cc1,6.03 µM,16.6 µM
Cc1nc2c(-c3cnc(N)nc3)nc(N3CCOCC3)nc2n1C(C)C,–,> 100 µM
CCCCCCCCCCCCOC1C(C(COC2OC(C3COC(C)(C)O3)C3OC(C)(C)OC23)NC(=O)Nc2ccc(C(=O)O)cc2)OC2OC(C)(C)OC21 (stereo not drawn),4.41 µM,14.6 µM
CCN(CC)CCC(CNc1ccnc2cc(Cl)ccc12)c1ccc(OC)cc1 (stereo not drawn),10.3 µM and 11 µM,29 µM and 29.9 µM
COc1ccc(/C=C(/C(=O)N2CCN(c3ccccc3)CC2)c2cc(OC)c(OC)c(OC)c2)cc1O,0.481 µM,> 100 µM
CCn1c(-c2nonc2N)nc2c(C#CC(C)(C)O)nc(OC[C@H](N)c3ccccc3)cc21,7.3 µM,20.5 µM
